From BindingDB's records for patent US20240190862 (Amgen, 2024)

Columns and labels:
[1] = biological target: T1, GTPase KRas [1-169,G12C,C118A] (Homo sapiens, UniProt P01116, C118A/G12C); experiment: Coupled Nucleotide Exchange Assay (5min)
T1 construct: 1-169
Protocol: (§1) Purified GDP-bound KRAS protein (aa 1-169), containing either G12C or G12D, as well as C118A amino acid substitutions and an N-terminal His-tag, was pre-incubated in assay buffer (25 mM HEPES pH 7.4, 10 mM MgCl2, and 0.01% Triton X-100) with a compound dose-response titration for either 5 min. Following compound pre-incubation, purified SOS protein (aa 564-1049) and GTP (Roche 10106399001) were added to the assay wells and incubated for an additional 30 min. To determine the extent of inhibition of SOS-mediated nucleotide exchange, purified GST-tagged cRAF (aa 1-149), nickel chelate AlphaLISA acceptor beads (PerkinElmer AL108R), and AlphaScreen glutathione donor beads (PerkinElmer 6765302) were added to the assay wells and incubated for 10 minutes. The assay plates were then read on a PerkinElmer EnVision Multilabel Reader, using AlphaScreen technology, and data were analyzed using a 4-parameter logistic model to calculate IC50 values.

[2] = biological target: T1, GTPase KRas [1-169,G12C,C118A]; experiment: Coupled Nucleotide Exchange Assay (20 hours)
Protocol: as §1, with “20 hours.” for “either 5 min.”

GTPase KRas [G12D,C118A] = GTPase KRas [G12D,C118A] (Homo sapiens, UniProt P01116, C118A/G12D); experiment: Coupled Nucleotide Exchange Assay (20 hours)
Protocol: as §1, with “20 hours.” for “either 5 min.”

Chain of GTPase KRas [G12D,C118A] (P01116 whole entry G12D/C118A, looked up): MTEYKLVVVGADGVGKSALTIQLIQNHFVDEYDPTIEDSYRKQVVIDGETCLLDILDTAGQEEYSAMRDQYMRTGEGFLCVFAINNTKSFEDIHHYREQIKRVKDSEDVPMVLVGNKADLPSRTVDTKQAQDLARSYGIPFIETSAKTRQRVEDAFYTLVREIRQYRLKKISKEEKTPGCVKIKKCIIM
T1 sequence (P01116 1-169 G12C/C118A): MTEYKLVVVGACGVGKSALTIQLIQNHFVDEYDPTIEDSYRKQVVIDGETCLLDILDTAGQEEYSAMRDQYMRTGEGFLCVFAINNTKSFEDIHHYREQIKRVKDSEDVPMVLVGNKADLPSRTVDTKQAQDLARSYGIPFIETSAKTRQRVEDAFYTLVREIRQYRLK

Compound | IC50 [1] | IC50 [2] | IC50 (GTPase KRas [G12D,C118A])
Cc1ccnc(C(C)C)c1-n1c(=O)nc(N2CCN(C(=O)C=O)C[C@@H]2C)c2cc(Cl)c(-c3ccccc3F)nc21 [US20240190862, Example 4] | 0.61 µM | 0.039 µM | > 250 µM
Cc1ccnc(C(C)C)c1-n1c(=O)nc(N2CCN(C(=O)C=[N+]=[N-])C[C@@H]2C)c2cc(Cl)c(-c3ccccc3F)nc21 [US20240190862, Example 13] | 8.59 µM | 0.54 µM | > 250 µM
CC(=O)C(=O)N1CCN(c2nc(=O)n(-c3c(C)ccnc3C(C)C)c3nc(-c4ccccc4F)c(Cl)cc23)[C@@H](C)C1 [US20240190862, Example 3] |  | 31.3 µM | > 250 µM
Cc1ccnc(C(C)C)c1-n1c(=O)nc(N2CCN(C(=O)COc3c(F)cccc3F)C[C@@H]2C)c2cc(Cl)c(-c3ccccc3F)nc21 [US20240190862, Example 8] |  | 24 µM | > 250 µM
